# Where a name gives a salt, the structure may show the parent alone. Read-outs that look alike come from different tables or passages of the source.
# Assays:
# [1] = test system: human colon cancer cells (HT-29); experiment: HT-29 subcutaneous xenograft, alone and in combination with 5-FU; assay type: in vivo, mouse
# Protocol: 1×10^6 cells of human colon cancer cells (HT-29) were subcutaneously implanted into right abdomen of female Balb/c nude mice. […] For comparison, 5-FU was intraperitoneally administered to mice in positive control groups at doses of 3, 10, and 30 mg/kg once daily for 12 days. […] On the day following the final administration, the tumor was removed and weighed. […] Percent inhibition of tumor growth was calculated based on the tumor weights in each administration groups versus that in a control group.
# [2] = test system: human colon cancer xenograft; details: Non-Patent Document 14, cited from earlier work
# [3] = test system: human pancreatic cancer PANC-1; details: Non-Patent Document 12, cited from earlier work
# [4] = test system: pancreatic cancer or colon cancer xenograft; details: only observed at a high dose of 200 mg/kg or more; Patent Document 1; cited from earlier work
# [5] = Toxicity test through 28-day repeated oral administration to rats; assay type: in vivo
# [6] = Toxicity test through 28-day repeated oral administration to dogs; assay type: in vivo
# [7] = test system: human pancreatic cancer cells (PANC-1); experiment: PANC-1 implanted into pancreas, lethal model, survival with gemcitabine combination (Table 1); assay type: in vivo, mouse; details: female SCID mice, compound A1 100 mg/kg oral once daily from day 7, GEM 100 mg/kg i.v. days 7, 10, 14
# Protocol: A small piece (70 to 80 mg) of human pancreatic cancer cells (PANC-1) was implanted into the pancreas of female SCID mice (15 mice for each group). […] In another group of mice, on seven, 10, and 14 days after implantation, gemcitabine hydrochloride (Gemzar Injection®) was intravenously administered at a dose of 100 mg/kg.
# [8] = test system: human pancreatic cancer cells (PANC-1); experiment: PANC-1 implanted into pancreas, lethal model, survival rate; assay type: in vivo, mouse; details: gemcitabine hydrochloride 100 mg/kg i.v. on days 7, 10, 14 after implantation; 40 days after administration start (46 days after implantation); female SCID mice (control […])
# Protocol: A small piece (70 to 80 mg) of human pancreatic cancer cells (PANC-1) was implanted into the pancreas of female SCID mice (15 mice for each group). […] In another group of mice, on seven, 10, and 14 days after the implantation, gemcitabine hydrochloride (Gemzar Injection®) as a positive control was intravenously injected at a dose of 100 mg/kg.
# [9] = test system: human pancreatic cancer cells (PAN1VC); experiment: PAN1VC implanted into pancreas, tumor weight, alone and with gemcitabine; assay type: in vivo, mouse; details: male nude mice
# Protocol: 1×10^6 cells of human pancreatic cancer cells (PAN1VC) were implanted into the pancreas of male nude mice. […] Percent inhibition of tumor growth was calculated based on the tumor weights in each administration groups versus that in a control group.
# [10] = test system: human pancreatic cancer cells (MIAPaCa 2); experiment: MIAPaCa 2 subcutaneous xenograft, tumor weight; assay type: in vivo, mouse; details: female Balb/c nude mice
# Protocol: 3×10^6 cells of human pancreatic cancer cells (MIAPaCa 2) were subcutaneously implanted into right abdomen of female Balb/c nude mice. […] On the day following the final administration, the tumor was removed and weighed. For comparison, vehicle was orally administered to mice in a control group, and the tumor weight was measured in similar manner to that described above. Percent inhibition of tumor growth was calculated based on the tumor weights in each administration group versus that in a control group.
# [11] = test system: human colon cancer cells (C170HM2); experiment: C170HM2 intraperitoneal model, tumor metastasis to the liver; assay type: in vivo, mouse; details: 40 days after implantation, male nude mice
# Protocol: 1.5×10^6 cells of human colon cancer cells (C170HM2) were intraperitoneally injected into male nude mice. […] Meanwhile, in a positive control group, the combination of 5-fluorouracil (hereinafter called “5-FU”) and leucovorin were intravenously administered (for each compound, 25 mg/kg/injection) one, four, seven, and 10 days after tumor implantation. Forty days after implantation of C170HM2 tumor, the weight of tumor-metastasized liver was measured.
# [12] = test system: human colon cancer cells (HT-29); experiment: HT-29 subcutaneous xenograft, tumor weight; assay type: in vivo, mouse; details: female Balb/c nude mice
# Protocol: 1×10^6 cells of human colon cancer cells (HT-29) were subcutaneously implanted into right abdomen of female Balb/c nude mice. […] On the day following the final administration, the tumor was removed and weighed. In a control group, vehicle was orally administered to mice, and the tumor weight was measured in similar manner to that described above. Percent inhibition of tumor growth was calculated based on the tumor weights in each administration groups versus that in a control group.
# [13] = rats, 1,000 mg/kg for 28 consecutive days (summary statement)
# [14] = dogs, 1,000 mg/kg for 28 consecutive days (summary statement)
# [15] = 30, 100, 300 or 1,000 mg/kg oral for 28 days, male and female SD rats, any group
# [16] = 30, 100, 300 or 1,000 mg/kg oral for 28 days, male and female beagle dogs, any group
compound,measurement,setting,value
"O=c1[nH]cc(F)c(=O)[nH]1 [5-FU, 5-fluorouracil]",Percent inhibition of tumor growth (tumor weight vs control),"[1]; 5-FU alone, 3 mg/kg i.p. once daily for 12 days",24%
same,Percent inhibition of tumor growth (tumor weight vs control),"[1]; 5-FU alone, 10 mg/kg i.p. once daily for 12 days",30%
same,Percent inhibition of tumor growth (tumor weight vs control),"[1]; 5-FU alone, 30 mg/kg i.p. once daily for 12 days",58%
C[C@](Cc1c[nH]c2ccccc12)(NC(=O)OC1[C@H]2C[C@@H]3C[C@@H](C[C@H]1C3)C2)C(=O)NC[C@H](NC(=O)CCC(=O)O)c1ccccc1 (some centres unmarked) [CI-988],Cell growth suppressive effect,"[2]; oral 25 mg/kg, without non-physiological gastrin stimulation",exhibits cell growth suppressive effect
same,Cell growth suppressive effect,[2]; oral 50 mg/kg,exhibits no cell growth suppressive effect
"Cc1cccc(NC(=O)N[C@@H]2N=C(c3ccccc3)c3ccccc3N(C)C2=O)c1 [L-365,260]",Gastrin-induced tumor growth,[3]; with gastrin stimulation,suppresses gastrin-induced tumor growth
same,Tumor growth without stimulation by gastrin,[3]; without gastrin stimulation,does not suppress tumor growth
CNc1cccc(NC(=O)N[C@@H]2N=C(c3ccccn3)c3ccccc3N(CC(=O)C(C)(C)C)C2=O)c1 [YF476],Tumor-shrinking effect,[4],exhibits tumor-shrinking effect
"CC(C)(C)C(=O)CN1C(=O)[C@H](NC(=O)Nc2cccc(C(=O)O)c2)CN(C2CCCCC2)c2ccccc21 [compound A, (R)-(−)-3-[3-(1-tert-butylcarbonylmethyl-2-oxo-5-cyclohexyl-1,3,4,5-tetrahydro-2H-1,5-benzodiazepin-3-yl)ureido]benzoic acid]","Abnormality in body weight, feed intake, ophthalmological test, urine test, organ weight, autopsy finding, histopathological test",[5]; [13],no abnormality was found
same,Deaths,[5]; [13],no deaths were observed
same,"Abnormality in body weight, feed intake, ophthalmological test, urine test, organ weight, autopsy finding, histopathological test",[6]; [14],no abnormality was found
same,Deaths,[6]; [14],no deaths were observed
Nc1ccn([C@@H]2O[C@H](CO)[C@@H](O)C2(F)F)c(=O)n1 [gemcitabine hydrochloride],Survival rate at 60 days after initiation of administration (66 days after implantation),[7]; alone or combined (control 0),0%
same,Median survival time,[7]; alone or combined (control 39),48 days
same,Survival rate at 50 days after initiation of administration (56 days after implantation),[7]; alone or combined (control 40),20%
same,Average survival time,[7]; alone or combined (control 43),46.9 days
same,Days of death of the last individual,[7]; alone or combined (control 56),54 days
same,Survival rate,[8],93.3%
same,Percent inhibition of tumor growth (tumor weight vs control),"[9]; gemcitabine hydrochloride alone, 5 mg/kg i.v. on days 1, 3, 6 after implantation",32%
"calcium (R)-(−)-3-[3-(1-tert-butylcarbonylmethyl-2-oxo-5-cyclohexyl-1,3,4,5-tetrahydro-2H-1,5-benzodiazepin-3-yl)ureido]benzoate [compound A1]",Percent inhibition of tumor growth (tumor weight vs control),[10]; 30 mg/kg oral once daily for 21 days,40%
same,Percent inhibition of tumor growth (tumor weight vs control),[10]; 100 mg/kg oral once daily for 21 days,42%
same,Percent inhibition of tumor growth (tumor weight vs control),"[1]; compound A1 alone, 30 mg/kg oral once daily for 12 days from 10 days after implantation",34%
same,"Abnormality in body weight, feed intake, ophthalmological test, urine test, organ weight, autopsy finding, histopathological test",[5]; [15],no abnormality was found
same,Deaths,[5]; [15],no deaths were observed
same,Inhibition of tumor metastasis to the liver (weight of tumor-metastasized liver),[11]; 3 mg/kg oral once daily,73%
same,Inhibition of tumor metastasis to the liver (weight of tumor-metastasized liver),[11]; 30 mg/kg oral once daily,81%
same,Percent inhibition of tumor growth (tumor weight vs control),[12]; 30 mg/kg oral once daily for 17 days from 4 days after implantation,44%
same,Percent inhibition of tumor growth (tumor weight vs control),[12]; 100 mg/kg oral once daily for 17 days from 4 days after implantation,50%
same,"Abnormality in body weight, feed intake, ophthalmological test, electrocardiogram, blood pressure, urine test, hematological test, blood biochemical test, organ weight, autopsy finding",[6]; [16],no abnormality was found
same,Deaths,[6]; [16],no deaths were observed
same,Percent inhibition of tumor growth (tumor weight vs control),"[9]; compound A1 alone, 30 mg/kg oral once daily for 36 days",19%
same,Percent inhibition of tumor growth (tumor weight vs control),"[9]; compound A1 alone, 100 mg/kg oral once daily for 36 days",23%

# Reference: US20170151256A1, “ANTITUMOR AGENT” (ZERIA PHARMACEUTICAL CO., LTD., priority 2005, published 2017)
